Measurements from ChEMBL document CHEMBL1221370, “Steroidal saponins from fresh stems of Dracaena angustifolia” (J Nat Prod, 2010).
In brackets after ≈: the same amount, converted by molar mass. Activity calls are given as the source filed them. The calls are words filed in the database; no cut-off is given here.

What was measured:
Type in all cases: functional, organism-based
Cryptococcus neoformans = experiment: Antifungal activity against Cryptococcus neoformans ATCC 90113 by broth dilution method
Pichia kudriavzevii = experiment: Antifungal activity against Candida krusei ATCC 6258 by broth dilution method
Aspergillus fumigatus = experiment: Antifungal activity against Aspergillus fumigatus ATCC 90906 by broth dilution method
Candida albicans = experiment: Antifungal activity against Candida albicans ATCC 90028 by broth dilution method
Nakaseomyces glabratus = experiment: Antifungal activity against Candida glabrata ATCC 90030 by broth dilution method

Compound	IC50 (Cryptococcus neoformans) [µg/mL]	Activity (Pichia kudriavzevii)	Activity (Aspergillus fumigatus)	Activity (Candida albicans)	Activity (Nakaseomyces glabratus)	Activity (Cryptococcus neoformans)
C[C@H]1CC[C@@]2(OC1)OC1C[C@H]3[C@@H]4CC=C5C[C@@H](O)C[C@@H](O[C@@H]6OC[C@H](O)[C@H](O)[C@H]6O[C@@H]6O[C@@H](C)[C@H](O)[C@@H](O)[C@H]6O)[C@]5(C)[C@H]4CC[C@]3(C)[C@H]1[C@@H]2C (stereo partly specified)	20 (≈ 28.2 µM)	inactive	inactive	inactive	inactive	
C[C@H]1CC[C@@]2(OC1)OC1C[C@H]3[C@@H]4CC=C5C[C@@H](O)C[C@@H](O[C@@H]6OC[C@H](O)[C@H](O[C@@H]7OC[C@@H](O)[C@H](O)[C@H]7O)[C@H]6O)[C@]5(C)[C@H]4CC[C@]3(C)[C@H]1[C@@H]2C (stereo partly specified) [ANGUDRACANOSIDE F]	9.5 (≈ 13.7 µM)	inactive	inactive	inactive	inactive	
C=C1CC[C@@]2(OC1)OC1C[C@H]3[C@@H]4[C@@H](O)C=C5C[C@@H](O)C[C@@H](O[C@@H]6OC[C@H](OS(=O)(=O)O)[C@H](O)[C@H]6O[C@@H]6O[C@@H](C)[C@H](O)[C@@H](O)[C@H]6O)[C@]5(C)[C@H]4CC[C@]3(C)[C@H]1[C@@H]2C (stereo partly specified)		inactive	inactive	inactive	inactive	inactive
C[C@H]1CC[C@@]2(OC1)OC1C[C@H]3[C@@H]4C(=O)C=C5C[C@@H](O)C[C@@H](O[C@@H]6OC[C@H](OS(=O)(=O)O)[C@H](O)[C@H]6O[C@@H]6O[C@@H](C)[C@H](O)[C@@H](O)[C@H]6O)[C@]5(C)[C@H]4CC[C@]3(C)[C@H]1[C@@H]2C (stereo partly specified)		inactive	inactive	inactive	inactive	inactive
C[C@@H]1[C@H](O)[C@@H](C)/C=C/C=C/C=C/C=C/C=C/C=C/C=C/[C@H](O[C@@H]2O[C@H](C)[C@@H](O)[C@H](N)[C@@H]2O)C[C@@H]2O[C@](O)(C[C@@H](O)C[C@@H](O)[C@H](O)CC[C@@H](O)C[C@@H](O)CC(=O)O[C@H]1C)C[C@H](O)[C@H]2C(=O)O [AMPHOTERICIN B]	2.5 (≈ 2.71 µM)					
C=C1CC[C@@]2(OC1)OC1C[C@H]3[C@@H]4CC=C5C[C@@H](O)C[C@@H](O[C@@H]6OC[C@H](OS(=O)(=O)O)[C@H](O)[C@H]6O[C@@H]6O[C@@H](C)[C@H](O)[C@@H](O)[C@H]6O)[C@]5(C)[C@H]4CC[C@]3(C)[C@H]1[C@@H]2C (stereo partly specified)		inactive	inactive	inactive	inactive	inactive
C=C1CO[C@]2(C[C@H]1O)OC1C[C@H]3[C@@H]4CC=C5C[C@@H](O)C[C@@H](O[C@@H]6OC[C@H](OS(=O)(=O)O)[C@H](O)[C@H]6O[C@@H]6O[C@@H](C)[C@H](O)[C@@H](O)[C@H]6O)[C@]5(C)[C@H]4CC[C@]3(C)[C@H]1[C@@H]2C (stereo partly specified)		inactive	inactive	inactive	inactive	inactive
